Experimental findings from patent US20240207262A1, “PROPHYLACTIC AND/OR THERAPEUTIC AGENT FOR AMYOTROPHIC LATERAL SCLEROSIS” (NATIONAL UNIVERSITY CORPORATION TOKAI NATIONAL HIGHER …, priority 2021, published 2024) are described below.

SMILES strings stand for the structures.

One assay relates to astrocytes. The assay can be described thus: Spinal cord GFAP staining in SOD1^G93A transgenic mice. Type of assay: in vivo. The conditions noted are these: 16W treated vs 16W control mouse spinal cord. The method, then:
(§1) PF-04457845 was mixed in the diet, and administration started at 8 weeks of age. […] Drug efficacy analysis was conducted using body weight, motion analysis based on the Rotarod test (measured once a week), and survival analysis.
(§2) A 16W PF-04457845-administered mouse spinal cord was compared with a 16W control-administered mouse spinal cord.

Assay [1] relates to NSC34 cells (mouse motor neuron) expressing SOD1^G93A. The assay can be described thus: WST cell viability assay, NSC34 cells transfected with SOD1^G93A. It counts as cell-based. Particulars: for Viability (SOD1^G93A): ratio of maximum viability to viability at 0 μM. The method, then:
(§3) A pathological cell model was created by transient forced expression of the following genes in NSC34 cells (mouse motor neuron) by transfecting the cells with a plasmid using Lipofectamine 2000 (R) (Thermo Fisher Scientific), and changes in cell viability due to drug administration were analyzed by WST assay.
(§4) • Day 0: NSC 34 cell culture (DMEM FBS 10%) • Day 1: Transfection (Cells were transfected with a plasmid having the following genes inserted by using Lipofectamine 2000 (R) (Thermo Fisher Scientific).) • 1. Mock (unmutated cells: control plasmid-transfected cells) • 2. TDP-43^A315T: TDP-43 mutation model (reflecting human pathological conditions) • 3. SOD1^G93A: mutation SOD1 familial model (mutation common to humans and animal models) • Cell culture is continued afterward in FBS-free DMEM. • Day 4: Drug administration • Day 5: WST assay (Cell viability is measured to determine the effect of drug administration.)
(§5) Two types of cellular models were used to bridge the gap between SOD1 transgenic mouse models and sporadic ALS human pathological conditions (TDP-43 cell model).
(§6) The viability indicates the ratio of maximum viability to viability at 0 μM. The […] PF-04457845 yielded a viability about 1.3 times the viability with the existing drug riluzole (control) at a concentration one-tenth the concentration of riluzole.

In assay [2] the test system is SOD1^G93A transgenic mice. As to the kind of experiment: Survival analysis in SOD1^G93A transgenic mice. It counts as in vivo, mouse. The conditions noted are these: 1 mg/kg/day mixed in diet from 8 weeks of age, vs control diet; log rank test p<0.001. The method, then: as §1
An ALS model animal with mutation of SOD1 gene, which is responsible for familial ALS, was used to conduct efficacy analysis of PF-04457845. The control was one that was free of the drug.
(§7) • Week 0: • Week 6: 1. Body weight, 2. Rotarod test (the method for measuring the motor function of mice) • Week 8: The drug (PF-04457845) was mixed with the diet, and administration started. • Week 9-10: Onset • Around week 17-20: Survival analysis
(§8) PF-04457845 was administered at a dose of 1 mg/kg/day. The dosage was determined based on a previous report on administration to rats (Ahn K et al. Journal of Pharmacology and Experimental Therapeutics 2011: 338; 114-124).
In accordance with the method shown in FIG. 6, survival analysis was performed. • ♂ (male), PF-04457845: n=8, Control: […] • ♀ (female), PF-04457845: n=8, Control: n=13 • Log rank test p<0.001

For assay [3], the system named is SOD1^G93A transgenic mice. As to the kind of experiment: Rotarod test (motion analysis) in SOD1^G93A transgenic mice. It counts as in vivo, mouse. Particulars: 1 mg/kg/day in diet, vs control diet; 2-way ANOVA, p=0.002. On the procedure:
as §1, §7, §8
(In general: Falling from the rotarod earlier than controls is read as motor impairment.)

Another assay relates to mouse spinal cords. As to the kind of experiment: Mouse spinal cord RNA sequencing (GO and IPA analysis) in SOD1^G93A transgenic mice. It counts as in vivo. The conditions noted are these: 16 weeks of age, drug diet vs control diet. The method, then:
The experiment of PF-04457845 administration to SOD1^G93A transgenic mice was continued, and RNA sequencing of the spinal cord was performed on mice treated with a drug-infused diet and mice treated with a control diet, both at 16 weeks of age.
GO analysis: This is a method for analyzing a group of genes that have many variable genes when genes are grouped according to their functionality among mRNAs whose RNA sequences show changes.
IPA analysis: An analysis to explore the association of known pathways, upstream factors, and toxicity with disease.

The nature of assay [4]: Body weight of SOD1^G93A transgenic mice. Particulars: 1 mg/kg/day in diet, vs control diet; 2-way ANOVA; trend toward limiting weight loss. Type of assay: in vivo, mouse. The method, then: as §1, §7, §8
The next assay concerns microglia. The assay can be described thus: Spinal cord Iba-1 staining in SOD1^G93A transgenic mice. The conditions noted are these: 16W treated vs 16W control mouse spinal cord. It counts as in vivo. The method, then:
as §1, §2

The test system of another assay is NSC34 cells. As to the kind of experiment: WST cell viability assay, NSC34 ALS model cells (model not given). It counts as cell-based, mouse. On the procedure:
as §3, §4
The experimental conditions are those described in FIG. 3.

In assay [5] the test system is mouse spinal cord motor neurons. The assay can be described thus: Spinal cord ChAT staining (motor neurons) in SOD1^G93A transgenic mice. It counts as in vivo. The method, then:
as §1
In accordance with the method shown in FIG. 6, the drug was administered, and the pathological specimens of mouse spinal cords in an advanced stage of the disease were subjected to ChAT staining (motor neuron).
19W and 22W PF-04457845-administered mouse spinal cords were compared with a 19W control-administered mouse spinal cord.
The photographs are of a 22W PF-04457845-administered mouse spinal cord and a 19W control-administered mouse spinal cord.
as §2
The photographs are of the 16W PF-04457845-administered mouse spinal cord and 16W control-administered mouse spinal cord.

Assay [6] deals with NSC34 cells (mouse motor neuron) expressing TDP-43^A315T. The assay can be described thus: WST cell viability assay, NSC34 cells transfected with TDP-43^A315T. It counts as cell-based. Particulars: for Viability (TDP-43^A315T): ratio of maximum viability to viability at 0 μM. The method, then:
as §3, §4, §5, §6

Take `O=C(Nc1cccnn1)N1CCC(=Cc2cccc(Oc3ccc(C(F)(F)F)cn3)c2)CC1` [PF-04457845, N-pyridazin-3-yl-4-(3-{[5-(trifluoromethyl)pyridin-2-yl]oxy}benzylidene) piperidine-1-carboxamide]: the “GFAP staining: proliferation of astrocytes” value in the assay with astrocytes is “effect of inhibiting the proliferation of astrocytes”. Moreover, the “Improving cell viability, SOD1 (G93A) mutation cell model” value in assay [1] (10 nM) is given as “highly effective in improving the cell viability”. For the same molecule, the “Viability (SOD1^G93A)” value in assay [1] (concentration 10 nM) is given as 1.26. The Survival period entry in assay [2] is reported as “effect of prolonging the survival period was observed”. Further, the “Rotarod test (motor function)” value in assay [3] was “significant progression-inhibiting effect”. In the assay on mouse spinal cords, the “Expression of CD36 in mouse spinal cords” value is “increased”, the “Expression of Pla2g3 in mouse spinal cords” value is “decreased”, the “Expression of lipoprotein lipase (Lpl) in mouse spinal cords” value is “increased” and the “IL-13 signaling pathway (IPA analysis)” value was “activation of IL-13 signaling pathway”. The Body weight result in assay [4] is listed as “no significant difference in body weight”. Also, the “Iba-1 staining: proliferation of microglia” value in the assay on microglia is recorded as “effect of inhibiting the proliferation of microglia”. Further, in the assay with NSC34 cells (at a concentration one-tenth the concentration of riluzole), the “Viability relative to the viability with riluzole (control)” value is reported as “about 1.3 times”. Besides, in the assay with NSC34 cells (vs PF-3845, arachidonoyl serotonin, FAAH inhibitor II, conditions of FIG. 3), the “Improving effect on cell viability compared with other FAAH inhibitors” value is listed as “more effective in improving cell viability”. Besides, in assay [5] (16W treated mice vs 16W control mice), the “ChAT-positive motor neuron count in spinal cord” value is reported as “effect of limiting the decrease in motor neuron count”. In addition, in [5] (19W and 22W treated mice vs 19W control mice, advanced stage), the “ChAT-positive motor neuron count in spinal cord” value is reported as “effect of limiting the decrease in motor neuron count”. For the same molecule, the “Improving cell viability, TDP-43 mutation (A315T) cell model” value in assay [6] (10 nM) was “highly effective in improving the cell viability”. Besides, the “Viability (TDP-43^A315T)” value in assay [6] (concentration 10 nM) was found to be 1.31.

For the molecule `Nc1nc2ccc(OC(F)(F)F)cc2s1` [Riluzole, riluzole], the “Viability (SOD1^G93A)” value in [1] (concentration 0.1 μM) is on record as 1.00. Further, the “Viability (TDP-43^A315T)” value in [6] (concentration 0.1 μM) came to 1.03.
